# pIC50: −log10 of the molar value.
# Biological target: recombinant human LRRK2 (catalytic domain only [amino acids 970-2527], GST-tagged) (Homo sapiens (Human), UniProt Q5S007)
# Experiment: LRRK2 Enzymatic Assay
# Assay type: biochemical
# Settings: LRRKtide substrate, [32P]-ATP
# Method in brief: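 Radiometric P81 filter-binding read-out of [32P]-ATP transfer to LRRKtide (20 μM) by 30 nM GST-LRRK2 970-2527, 2 h at room temperature after 20 min compound preincubation (10 μM–0.5 nM, 1% DMSO). IC50 derived from % remaining activity versus DMSO.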
# recombinant human LRRK2 (catalytic domain only [amino acids 970-2527], GST-tagged), sequence (Q5S007 970-2527): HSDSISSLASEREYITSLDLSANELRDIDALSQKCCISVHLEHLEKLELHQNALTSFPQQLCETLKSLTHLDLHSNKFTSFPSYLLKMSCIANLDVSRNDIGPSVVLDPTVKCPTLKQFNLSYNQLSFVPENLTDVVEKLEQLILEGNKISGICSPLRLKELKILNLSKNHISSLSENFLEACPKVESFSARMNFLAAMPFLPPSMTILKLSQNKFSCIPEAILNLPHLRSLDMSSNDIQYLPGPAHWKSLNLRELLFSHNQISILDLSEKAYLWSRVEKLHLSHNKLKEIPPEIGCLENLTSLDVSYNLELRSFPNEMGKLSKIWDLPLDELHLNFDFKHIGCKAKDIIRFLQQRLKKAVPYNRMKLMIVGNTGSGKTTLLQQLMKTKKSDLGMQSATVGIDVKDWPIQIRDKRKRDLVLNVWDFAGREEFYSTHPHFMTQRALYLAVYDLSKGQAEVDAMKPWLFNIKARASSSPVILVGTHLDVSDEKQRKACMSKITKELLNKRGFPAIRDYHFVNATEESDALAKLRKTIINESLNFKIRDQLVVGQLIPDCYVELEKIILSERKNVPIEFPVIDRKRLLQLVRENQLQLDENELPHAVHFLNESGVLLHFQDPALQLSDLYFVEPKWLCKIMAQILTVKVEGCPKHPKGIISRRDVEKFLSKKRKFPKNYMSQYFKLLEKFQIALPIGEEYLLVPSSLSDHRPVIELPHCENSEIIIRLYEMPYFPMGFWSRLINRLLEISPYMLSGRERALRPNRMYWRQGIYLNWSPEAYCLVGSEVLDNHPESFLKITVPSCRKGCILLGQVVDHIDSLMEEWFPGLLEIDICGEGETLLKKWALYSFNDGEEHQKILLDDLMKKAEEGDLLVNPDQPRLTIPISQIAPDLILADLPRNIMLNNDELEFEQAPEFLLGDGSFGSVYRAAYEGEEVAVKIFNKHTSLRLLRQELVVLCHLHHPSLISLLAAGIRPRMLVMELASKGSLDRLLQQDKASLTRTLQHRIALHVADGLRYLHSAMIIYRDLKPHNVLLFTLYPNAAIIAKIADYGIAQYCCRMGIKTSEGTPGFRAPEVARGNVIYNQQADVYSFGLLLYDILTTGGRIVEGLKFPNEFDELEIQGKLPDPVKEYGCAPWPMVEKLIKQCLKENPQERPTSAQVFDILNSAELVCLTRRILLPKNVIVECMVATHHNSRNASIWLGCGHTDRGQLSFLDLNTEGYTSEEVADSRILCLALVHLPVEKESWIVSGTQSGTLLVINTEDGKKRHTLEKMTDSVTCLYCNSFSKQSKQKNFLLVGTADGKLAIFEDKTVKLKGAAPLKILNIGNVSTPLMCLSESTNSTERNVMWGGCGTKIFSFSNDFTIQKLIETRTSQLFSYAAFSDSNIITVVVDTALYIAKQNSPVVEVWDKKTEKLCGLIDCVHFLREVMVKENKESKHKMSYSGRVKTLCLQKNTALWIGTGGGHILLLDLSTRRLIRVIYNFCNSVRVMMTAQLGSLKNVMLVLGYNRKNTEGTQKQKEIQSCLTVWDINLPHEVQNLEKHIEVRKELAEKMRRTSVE
row,Compound,pIC50
1,"CC(=O)NC1CCCC(COc2nc(Nc3ccc(N4CCOCC4)cc3)ncc2F)CC1 (stereo not shown) [Example 85, N-(4-(((5-fluoro-2-((4-morpholinophenyl)amino)pyrimidin-4-yl)oxy)methyl)cyclo-heptyl)acetamide]",> 7.30
2,"Cc1nn(C(C)(C)C#N)cc1Nc1ncc(F)c(OCC2CCNCC2)n1 [Example 18, 2-(4-((5-fluoro-4-(piperidin-4-ylmethoxy)pyrimidin-2-yl)amino)-3-methyl-1H-pyrazol-1-yl)-2-methylpropanenitrile]",6.70 to 7.30
3,"Cc1nn(C(C)(C)C#N)cc1Nc1ncc(F)c(OC[C@H]2CC[C@H](O)CC2)n1 [Example 125, 2-(4-((5-fluoro-4-(((1R,4R)-4-hydroxycyclohexyl)methoxy)pyrimidin-2-yl)amino)-3-methyl-1H-pyrazol-1-yl)-2-methylpropanenitrile]",> 7.30
4,"O=C(N[C@H]1CC[C@H](COc2nc(Nc3cccc(N4CCOCC4)c3)ncc2Cl)CC1)C(F)F [Example 101, N-((1R,4R)-4-(((5-chloro-2-((3-morpholino-phenyl)amino)pyrimidin-4-yl)oxy)methyl)cyclohexyl)-2,2-difluoro-acetamide]",> 7.30
5,"Fc1cnc(Nc2ccc(N3CCOCC3)cc2)nc1OCC1(F)CCNCC1 [Example 24, 5-fluoro-4-((4-fluoropiperidin-4-yl)methoxy)-N-(4-morpholinophenyl) pyrimidin-2-amine]",6.70 to 7.30
6,"Cc1nn(C(C)(C)C#N)cc1Nc1ncc(F)c(OC[C@@H]2CCC[C@@H](O)C2)n1 [Example 250, 2-(4-((5-fluoro-4-(((1R,3R)-3-hydroxycyclohexyl)methoxy)pyrimidin-2-yl)amino)-3-methyl-1H-pyrazol-1-yl)-2-methylpropanenitrile]",> 7.30
7,"C[C@@H]1CN(c2ccc(Nc3ncc(F)c(OCC4CCC(OC(F)(F)F)CC4)n3)cc2)C[C@H](C)O1 (stereo partly drawn) [Example 283, N-(4-((2S,6R)-2,6-dimethylmorpholino)phenyl)-5-fluoro-4-((4-(trifluoromethoxy)cyclohexyl)methoxy)pyrimidin-2-amine]",< 6.40
8,"CC1(C(=O)N[C@H]2CC[C@H](COc3ccnc(Nc4ccc(N5CCOCC5)cc4)n3)CC2)CC1 [Example 71, 1-methyl-N-((1R,4R)-4-(((2-((4-morpholinophenyl)amino)pyrimidin-4-yl)oxy)methyl)cyclo-hexyl)cyclopropane-1-carboxamide]",< 6.40
9,"CCn1cc(Nc2ncc(F)c(OC[C@H]3CC[C@H](NC(C)=O)CC3)n2)cn1 [Example 184, N-((1R,4R)-4-(((2-((1-ethyl-1H-pyrazol-4-yl)amino)-5-fluoropyrimidin-4-yl)oxy)methyl)cyclo-hexyl)acetamide]",> 7.30
10,"CNC[C@H]1CC[C@H](COc2nc(Nc3cn(C4CC(C#N)C4)nc3C)ncc2Cl)CC1 (stereo partly drawn) [Example 51, 3-(4-((5-chloro-4-(((1R,4R)-4-((methylamino)methyl)cyclohexyl)methoxy)pyrimidin-2-yl)amino)-3-methyl-1H-pyrazol-1-yl)cyclobutane-1-carbonitrile]",> 7.30
11,"OCCn1cc(Nc2ncc(F)c(OC[C@H]3CC[C@H](O)CC3)n2)cn1 [Example 225, (1R,4R)-4-(((5-fluoro-2-((1-(2-hydroxyethyl)-1H-pyrazol-4-yl)amino)pyrimidin-4-yl)oxy)methyl)cyclohexan-1-ol]",> 7.30
12,"C[C@@H]1CN(c2ccc(Nc3ncc(F)c(OCC4CCS(=O)(=O)CC4)n3)cc2)C[C@H](C)O1 [Example 288, 4-(((2-((4-((2R,6S)-2,6-dimethylmorpholino)phenyl)amino)-5-fluoropyrimidin-4-yl)oxy)methyl)tetrahydro-2H-thiopyran 1,1-dioxide]",< 6.40
13,"CC(=O)NC12CCC(COc3ccnc(Nc4cn(C(C)(C)C#N)nc4C)n3)(CC1)CC2 [Example 78, N-(4-(((2-((1-(2-cyanopropan-2-yl)-3-methyl-1H-pyrazol-4-yl)amino)pyrimidin-4-yl)oxy)methyl)bicyclo [2.2.2]octan-1-yl)acetamide]",6.40 to 6.70
